Laboratory results published in patent US6908907B2, “Prevention and treatment of tumor growth, metastasis, and thromboembolic complications in cancer patients” (priority 2002, dated 2005).

Legend:
[1] = test system: B16 melanoma; test: B16 melanoma injectable model of experimental lung metastasis; type: in vivo, mice; conditions: 700 ng i.v. 5 minutes prior to tumor cell injection
Source text: (§1) Tinzaparin is a low molecular weight heparin that is produced by heparinase depolymerization of unfractionated heparin allowing for its relatively high sulfate to carboxylate ratio. Beyond its potent plasmatic effects on ATIII-dependent coagulation factors, Tinzaparin is a very effective LMWH in causing the release of TFPI from the endothelial cells, the natural inhibitor of tissue factor pro-coagulant and non-coagulant effects. The present study was undertaken to investigate the effect of the LMWH, Tinzaparin as well as recombinant TFPI on experimental lung metastasis. […] In a second experimental group, in addition to the initial (pre-tumor cell) dose, subcutaneous Tinzaparin (10 mg/kg) was administered daily for 14 days at which time lung seeding was assessed. In the latter group, lung tumor formation was reduced by 96% (P<0.001). […] In order to determine the anticoagulant activity of Tinzaparin, 4 hrs after a single subcutaneous dose, whole blood re-calcification was measured using a Sonoclot Analyzer. Tinzaparin (10 mg/kg S.C.) prolonged the clotting time 4 fold. Furthermore, measuring the platelet count (a sensitive marker of intravascular coagulation) before and 15 minutes determined the effect of Tinzaparin on tumor cell-induced clotting activation in vivo after tumor cell injection in control and Tinzaparin-treated animals. […]

[2] = test system: tumor cell-induced thrombocytopenia; test: Tumor cell-induced clotting activation in vivo (platelet count); set-up: species or system mice; conditions: 700 ng i.v. 5 minutes prior to tumor cell injection
Source text: as §1

[3] = test system: endothelial cell tube formation; conditions: concentration-dependent; cited from earlier work
[4] = test system: colon carcinoma (HCT-116); conditions: CAM model; cited from earlier work

What does the source list for “r-TFPI: recombinant tissue factor pathway inhibitor”?
reduction of B16 lung metastasis [1]: 85%; effect on tumor cell induced thrombocytopenia [2]: abolished tumor cell induced thrombocytopenia; effect on endothelial cell tube formation [3]: significant and comparable inhibitory effects; inhibition of colon or lung carcinoma-induced angiogenesis, tumor growth and regression [4]: significant inhibition
